These results are taken from publication PMC7844276, “Multi-functionality of a tryptophan residue conserved in substrate-binding groove of GH19 chitinases” (Scientific Reports, 2021).

The term Kd denotes the concentration at which binding is half-saturated.

Common to all, as to assay type: binding
Test [1] has as its target T1, BcChi-A (Gemmabryum coronatum, UniProt A9ZSX9, W126A).
T1 construct: gene bcchiA; recombinant, pET-22b in E. coli BL21(DE3); purified from cell lysate by acid treatment, Q-Sepharose, Sephacryl S-100; no tag mentioned; 15N-labelled for NMR; catalytic domain, loopless GH19
Description: 1H-15N HSQC NMR titration, Asn20 chemical shift. The note with it: 50 mM sodium acetate pH 5.0, 90% H2O/10% D2O, 300 K; 0.2 mM 15N protein. The source says: (§1) 1H-15N HSQC NMR titration, Asn20 chemical shift on BcChi-A

Test [2] has as its target T2, BcChi-A (Gemmabryum coronatum, UniProt A9ZSX9, W126F).
T2 construct: gene bcchiA; recombinant, pET-22b in E. coli BL21(DE3); purified from cell lysate by acid treatment, Q-Sepharose, Sephacryl S-100; no tag mentioned; 15N-labelled for NMR; catalytic domain, loopless GH19
Put plainly: 1H-15N HSQC NMR titration, Asn20 chemical shift. The settings on record: 50 mM sodium acetate pH 5.0, 90% H2O/10% D2O, 300 K; 0.2 mM 15N protein.
Source text: as §1

Test [3] addresses T3, BcChi-A (Gemmabryum coronatum, UniProt A9ZSX9).
T3 construct: gene bcchiA; recombinant, pET-22b in E. coli BL21(DE3); purified from cell lysate by acid treatment, Q-Sepharose, Sephacryl S-100; no tag mentioned; 15N-labelled for NMR; catalytic domain, loopless GH19
Put plainly: 1H-15N HSQC NMR titration, Asn20 chemical shift. The note with it: 50 mM sodium acetate pH 5.0, 90% H2O/10% D2O, 300 K; 0.2 mM 15N protein.
Source text: as §1

Test [4] deals with T4, BcChi-A (Gemmabryum coronatum, UniProt A9ZSX9, E84Q).
T4 construct: gene bcchiA; recombinant, pET-22b in E. coli BL21(DE3); purified from cell lysate by acid treatment, Q-Sepharose, Sephacryl S-100; no tag mentioned; 15N-labelled for NMR; catalytic domain, loopless GH19
T4 sequence (A9ZSX9 entry or part of it E84Q): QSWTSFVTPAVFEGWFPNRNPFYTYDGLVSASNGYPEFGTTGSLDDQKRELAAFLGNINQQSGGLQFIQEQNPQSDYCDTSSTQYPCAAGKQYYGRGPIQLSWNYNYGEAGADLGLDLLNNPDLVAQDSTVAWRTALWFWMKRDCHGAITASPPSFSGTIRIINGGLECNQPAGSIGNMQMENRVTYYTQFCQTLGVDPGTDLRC
Put plainly: 1H-15N HSQC NMR titration, Asn20 bound-state intensity (slow exchange). The note with it: 50 mM sodium acetate pH 5.0, 90% H2O/10% D2O, 300 K; 0.2 mM 15N protein; catalytically inactive mutant. The source says:
(§2) 1H-15N HSQC NMR titration, Asn20 bound-state intensity (slow exchange) on BcChi-A

For test [5], the target named is T5, BcChi-A (Gemmabryum coronatum, UniProt A9ZSX9, E84Q/W126F).
T5 construct: gene bcchiA; recombinant, pET-22b in E. coli BL21(DE3); purified from cell lysate by acid treatment, Q-Sepharose, Sephacryl S-100; no tag mentioned; 15N-labelled for NMR; catalytic domain, loopless GH19
T5 sequence (A9ZSX9 entry or part of it E84Q/W126F): as the sequence (A9ZSX9 entry or part of it E84Q) above, with W103F counted along it
Described as above. The settings on record: 50 mM sodium acetate pH 5.0, 90% H2O/10% D2O, 300 K; 0.2 mM 15N protein; catalytically inactive mutant.
Source text: as §2

For test [6], the target named is T6, BcChi-A (Gemmabryum coronatum, UniProt A9ZSX9, E84Q/W126A).
T6 construct: gene bcchiA; recombinant, pET-22b in E. coli BL21(DE3); purified from cell lysate by acid treatment, Q-Sepharose, Sephacryl S-100; no tag mentioned; 15N-labelled for NMR; catalytic domain, loopless GH19
T6 sequence (A9ZSX9 entry or part of it E84Q/W126A): as the sequence (A9ZSX9 entry or part of it E84Q) above, with W103A counted along it
The test is described as above. The note with it: 50 mM sodium acetate pH 5.0, 90% H2O/10% D2O, 300 K; 0.2 mM 15N protein; catalytically inactive mutant.
Source text: as §2

T3 sequence (A9ZSX9 entry or part of it): as the sequence (A9ZSX9 entry or part of it E84Q) above, with Q61E counted along it
T1 sequence (A9ZSX9 entry or part of it W126A): as the sequence (A9ZSX9 entry or part of it E84Q) above, with Q61E, W103A counted along it
T2 sequence (A9ZSX9 entry or part of it W126F): as the sequence (A9ZSX9 entry or part of it E84Q) above, with Q61E, W103F counted along it

For `CC(=O)N[C@H]1[C@H](O[C@H]2[C@H](O)[C@@H](NC(C)=O)C(O)O[C@@H]2CO)O[C@H](CO)[C@@H](O)[C@@H]1O` (stereo partly drawn) [(GlcNAc)2], the results for the Kd in test [1], in test [2] and in test [3] were 24 mM, 22 mM and 4.2 mM, respectively.
`CC(=O)N[C@H]1[C@H](O[C@H]2[C@H](O)[C@@H](NC(C)=O)[C@H](O[C@H]3[C@H](O)[C@@H](NC(C)=O)C(O)O[C@@H]3CO)O[C@@H]2CO)O[C@H](CO)[C@@H](O[C@@H]2O[C@H](CO)[C@@H](O[C@@H]3O[C@H](CO)[C@@H](O[C@@H]4O[C@H](CO)[C@@H](O)[C@H](O)[C@H]4NC(C)=O)[C@H](O)[C@H]3NC(C)=O)[C@H](O)[C@H]2NC(C)=O)[C@@H]1O` (stereo partly drawn) [(GlcNAc)6]: the values for the Kd in test [4], in test [5] and in test [6] were 14 µM, 1 mM and 200 µM, respectively.
